What all share (assay type): in vivo
One experiment concerns OsWRKY45. Put plainly: Induction of OsWRKY45 gene expression by BTH treatment (Northern blot analysis). The settings on record: rice seedlings 3.5-leaf stage, 0.5 mM BTH, leaves. As to the method:
FIG. 1 depicts the induction of OsWRKY45 gene expression by BTH treatment. Rice plants at the 3.5-leaf stage were treated with BTH, and RNAs were prepared from leaves over time and subjected to Northern analysis. For comparison, two types of PR genes (PR1b and PBZ1) were also examined for induction of expression.
In order to detect a transcription factor gene inducibly expressed by BTH, rice seedlings (3.5-leaf stage) on day 10 after seeding were treated with 0.5 mM BTH (in 0.01% Tween 20/0.5% acetone), and the RNAs prepared over time (12, 24, 72, and 120 hours after the treatment) from BTH-treated and mock-treated rice leaves were subjected to DNA microarray analysis with the rice 22K array (Agilent). As a result, a WRKY transcription factor gene (OsWRKY45, AK066255; SEQ ID NOs: 1 and 2) that is inducibly expressed by BTH treatment was found.

Experiment [1] deals with blast disease fungus (race 007). Put plainly: Blast disease assay after BTH treatment in non-transformed and OsWRKY45 RNAi rice plants. The note with it: 0.5 mM BTH sprayed at 4-leaf stage, inoculated 2 days later, counted after 7 days. An excerpt: FIG. 8 is a graph depicting the results of inducing the blast disease resistance by BTH in rice plants in which OsWRKY45 expression is suppressed. A blast disease fungus was inoculated into non-transformed rice plants, either treated or not treated with BTH, and BTH-treated rice plants in which OsWRKY45 expression was suppressed. After seven days, the number of blotches on the 10-cm long central part of leaf blades was counted in each plant.
In order to examine the effect of suppression of OsWRKY45 expression on the blast disease resistance induced in rice by BTH treatment, non-transformed rice plants and transformed lines of rice plant in which the suppression of OsWRKY45 expression by RNAi had been confirmed were sprayed with 0.5 mM BTH at the 4-leaf stage, and then inoculated with a compatible blast disease fungus (race 007) 2 days later. After 7 days, the blotches present on the 10-cm long central part of leaf blades were counted in each plant body.

Experiment [2] concerns PR1b and OsWRKY45 expression. Put plainly: Induction of PR1b and OsWRKY45 expression by BTH in NH1 RNAi rice plants (RT-PCR). The note with it: rice plants in which NH1 was suppressed by RNAi. An excerpt:
FIG. 10 is composed of photographs depicting OsWRKY45 expression in rice plants in which the expression of NH1, a rice NPR1 homolog, is suppressed by RNAi. Two lines (#7 and #14) in which the NH1 expression was suppressed by RNAi were BTH-treated or mock-treated to examine the induction of expression of PR1b and OsWRKY45 by RT-PCR.
Recently, it was reported that in Arabidopsis thaliana, the resistance to a filamentous fungus, Erysiphe cichoracearum, was enhanced by the introduction of WRKY70, a WRKY transcription factor (Li, J., Brader, G., Kariola, T., and Palva, E. T. (2006). WRKY70 modulates the selection of signaling pathways in plant defense. Plant J. 46, 477-491). […] From these findings, WRKY70 is thought to be a transcription factor downstream of NPR1. Thus, for comparison of functions between WRKY70 and OsWRKY45, the induction of PR1b and OsWRKY45 expressions by BTH was examined in rice plants in which NH1, a rice NPR1 homolog (Chern, M., Fitzgerald, H. A., Canlas, P. E., Navarre, D. A., and Ronald, P. C. (2005). Overexpression of a rice NPR1 homolog leads to constitutive activation of defense response and hypersensitivity to light. Mol. Plant-Microbe Int. 18, 511-520) was suppressed by RNAi.

A value given as a limit tells only on which side of the number the result lay.

For the molecule `c1ccc2snnc2c1` [BTH, benzothiadiazole], in the experiment with OsWRKY45, the “time after BTH treatment within which OsWRKY45 expression was induced” value is at most 3 h. Besides, the “blotches on the 10-cm long central part of leaf blades” value in experiment [1] (non-transformed rice) was “Almost no blotches were observed”. Moreover, the “blotches on the 10-cm long central part of leaf blades” value in experiment [1] (rice with OsWRKY45 expression suppressed by RNAi) is “nearly equal number of blotches to that in non-treated, non-transformed rice plants”. Also, in experiment [2], the “induction of OsWRKY45 expression by BTH” value is reported as “not affected at all” and the “induction of PR1b expression by BTH” value is “completely lost”.

Values taken from patent US8373021B2, “Improving disease resistance in plants by introducing transcription factor gene” (priority 2005, dated 2013).
